Molecular target: T1, trkA (Rattus norvegicus, UniProt P35739)
T1 construct: are rat pheochromocytoma cells that bear trkA; host or cells: PC12 rat pheochromocytoma cells
Experiment: inhibition of NGF-stimulated trk autophosphorylation (tyrosine phosphorylation) in PC12 cells, anti-phosphotyrosine Western blot; on trk 100 nM (inhibition of phosphorylation): key: +: Inhibited phosphorylation; -: Did not inhibit phosphorylation; on trk 500 nM (inhibition of phosphorylation): key: +: Inhibited phosphorylation; -: Did not inhibit phosphorylation
Type: cell-based
Settings: for trk 100 nM (inhibition of phosphorylation) / phosphorylation response (FIG. 1, spot): 100 nM compound; for trk 100 nM (inhibition of phosphorylation) / trk 500 nM (inhibition of phosphorylation): NGF 50 ng/ml; for trk 500 nM (inhibition of phosphorylation): 500 nM compound; for phosphorylation response (FIG. 1, spot): NGF, Western blot FIG. 1
Method: Candidate compounds for the inhibition of prostate cell proliferation were selected according to their ability to inhibit the tyrosine kinase activity associated with the trks.
PC12 cells (ATCC #CRL1721) are rat pheochromocytoma cells that bear trkA and differentiate into sympathetic neurons when treated with NGF. […] Cells were incubated at 37° C. in a humidified atmosphere of 10% CO2 and 90% air. […] The cells in each culture were disrupted and cell lysates were prepared by standard techniques known to those skilled in the art. Each lysate was incubated with anti-trk antibody whereby immune complexes were formed. […] The immune complexes were collected on Protein A-Sepharose beads, separated by SDS-polyacrylamide gel electrophoresis (SDS-PAGE), and transferred to polyvinylidene difluoride (PVDF) membranes (Millipore Corp., Bedford, Mass.), using techniques well known to those skilled in the art. The membranes were incubated with anti-phosphotyrosine antibody, which binds to the tyrosine phosphorylated trks, but not to the un-phosphorylated form of trks. Proteins bound to anti-phosphotyrosine antibody were visualized with enhanced chemiluminescence (ECL, Amersham), and are shown as dark "spots" in FIG. 1.
Measurement of the autophosphorylation of trk provides a good index of trk tyrosine kinase activity, and thereby of trk stimulation.
Inhibition was indicated by the absence of a spot migrating with the trk marker shown at the left side of the figure. Partial inhibition was indicated by a spot of reduced size.

T1 sequence (P35739 33-799): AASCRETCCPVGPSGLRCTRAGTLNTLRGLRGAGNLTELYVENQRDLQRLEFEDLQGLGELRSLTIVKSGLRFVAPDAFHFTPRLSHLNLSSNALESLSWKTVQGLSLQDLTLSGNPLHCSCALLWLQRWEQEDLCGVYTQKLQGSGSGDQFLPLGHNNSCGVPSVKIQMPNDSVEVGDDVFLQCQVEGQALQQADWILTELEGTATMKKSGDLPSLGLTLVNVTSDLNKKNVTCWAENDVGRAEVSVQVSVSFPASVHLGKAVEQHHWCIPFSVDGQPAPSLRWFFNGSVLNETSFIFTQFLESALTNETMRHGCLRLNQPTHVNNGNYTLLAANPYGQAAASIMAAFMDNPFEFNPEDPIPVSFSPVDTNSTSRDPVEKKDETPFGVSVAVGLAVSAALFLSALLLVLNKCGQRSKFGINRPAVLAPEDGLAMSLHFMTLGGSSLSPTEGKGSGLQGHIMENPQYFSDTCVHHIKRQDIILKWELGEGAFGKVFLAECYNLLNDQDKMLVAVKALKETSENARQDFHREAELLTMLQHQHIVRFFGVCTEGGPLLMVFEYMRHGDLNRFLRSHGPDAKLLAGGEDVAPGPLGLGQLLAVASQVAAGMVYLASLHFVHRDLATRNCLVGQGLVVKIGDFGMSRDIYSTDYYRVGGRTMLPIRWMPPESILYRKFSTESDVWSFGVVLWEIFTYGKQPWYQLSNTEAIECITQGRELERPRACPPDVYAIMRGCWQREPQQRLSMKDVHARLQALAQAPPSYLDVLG

Row | SMILES | trk 100 nM (inhibition of phosphorylation) | trk 500 nM (inhibition of phosphorylation) | phosphorylation response (FIG. 1, spot)
1 | CC12OC(CC1O)n1c3ccccc3c3c4c(c5c6ccccc6n2c5c31)CNC4=O (centres unmarked) [Compound I-3] | + |  | 
2 | CC12OC(CC1(O)C(N)=O)n1c3ccccc3c3c4c(c5c6ccccc6n2c5c31)CNC4=O (centres unmarked) [Compound I-4] | + | + | 
3 | CC(=O)OCC1(O)CC2OC1(C)n1c3ccccc3c3c4c(c5c6ccccc6n2c5c31)C(=O)NC4 (centres unmarked) [Compound I-6] | + |  | 
4 | CC12OC(CC13CNC(=O)O3)n1c3ccccc3c3c4c(c5c6ccccc6n2c5c31)CNC4=O (centres unmarked) [Compound I-7] | + |  | absent (no spot seen)
5 | CCNC(=O)C1(O)CC2OC1(C)n1c3ccccc3c3c4c(c5c6ccccc6n2c5c31)C(=O)NC4 (centres unmarked) [Compound I-9] | + |  | absent (no spot seen)
6 | CCCNC(=O)C1(O)CC2OC1(C)n1c3ccccc3c3c4c(c5c6ccccc6n2c5c31)C(=O)NC4 (centres unmarked) [Compound I-10] | + |  | 
7 | CC12OC(CC1(O)C(=O)N1CCOCC1)n1c3ccccc3c3c4c(c5c6ccccc6n2c5c31)CNC4=O (centres unmarked) [Compound I-11] | + |  | 
8 | CC1(C)OCC2(CC3OC2(C)n2c4ccccc4c4c5c(c6c7ccccc7n3c6c42)C(=O)NC5)O1 (centres unmarked) [Compound I-13] | + | + | 
9 | CC12OC(CC1(O)C=NNC(N)=O)n1c3ccccc3c3c4c(c5c6ccccc6n2c5c31)CNC4=O (centres unmarked) [Compound I-14] | + |  | 
10 | CC12OC(CC1(O)CNC(=O)[C@@H]1CCCN1)n1c3ccccc3c3c4c(c5c6ccccc6n2c5c31)CNC4=O (some centres unmarked) [Compound I-17] | - | + | 
11 | CC12OC(CC1(O)CNC(=O)[C@@H](N)CO)n1c3ccccc3c3c4c(c5c6ccccc6n2c5c31)CNC4=O (some centres unmarked) [Compound I-18] | + |  | 
12 | CC12OC(CC1(O)CN=[N+]=[N-])n1c3ccccc3c3c4c(c5c6ccccc6n2c5c31)CNC4=O (centres unmarked) [Compound I-21] | - | + | 
13 | COC(=O)C1(O)CC2OC1(C)n1c3ccccc3c3c4c(c5c6cc(Br)ccc6n2c5c31)C(=O)NC4 (centres unmarked) [Compound I-23] | - | + | 
14 | CC(=O)NCC1(O)CC2OC1(C)n1c3ccccc3c3c4c(c5c6ccccc6n2c5c31)C(=O)NC4 (centres unmarked) [Compound I-24] | + |  | 
15 | CN(C)C(=O)C1(O)CC2OC1(C)n1c3ccccc3c3c4c(c5c6ccccc6n2c5c31)C(=O)NC4 (centres unmarked) [Compound I-25] | + |  | 
16 | CC12OC(CC1(O)C(=O)NO)n1c3ccccc3c3c4c(c5c6ccccc6n2c5c31)CNC4=O (centres unmarked) [Compound I-26] | + |  | 
17 | COC(=O)C1(O)CC2OC1(C)n1c3ccccc3c3c4c(c5c6cc(NC(=O)Nc7ccccc7)ccc6n2c5c31)C(=O)NC4 (centres unmarked) [Compound I-27] | - | + | 
18 | CC12OC(CC1(O)C=NO)n1c3ccccc3c3c4c(c5c6ccccc6n2c5c31)CNC4=O (centres unmarked) [Compound I-28] | + |  | 
19 | CC12OC(CC1(O)C=NNC(=N)N)n1c3ccccc3c3c4c(c5c6ccccc6n2c5c31)CNC4=O (centres unmarked) [Compound I-29] | - | + | 
20 | CC12OC(CC1(O)C=NNC1=NCCN1)n1c3ccccc3c3c4c(c5c6ccccc6n2c5c31)CNC4=O (centres unmarked) [Compound I-30] | - | + | 
21 | COC(=O)CC1(O)CC2OC1(C)n1c3ccccc3c3c4c(c5c6ccccc6n2c5c31)C(=O)NC4 (centres unmarked) [Compound I-31] | + |  | 
22 | CC12OC(CC1(O)CNC(=O)CN)n1c3ccccc3c3c4c(c5c6ccccc6n2c5c31)CNC4=O (centres unmarked) [Compound I-32] | + |  | 
23 | CC12OC(CC1(O)C(=O)Nc1ccccc1)n1c3ccccc3c3c4c(c5c6ccccc6n2c5c31)CNC4=O (centres unmarked) [Compound I-33] | - | + | 
24 | CCNC(=O)Nc1ccc2c(c1)c1c3c(c4c5ccccc5n5c4c1n2C1CC(O)(C(=O)OC)C5(C)O1)CNC3=O (centres unmarked) [Compound I-34] | - | + | 

Row | SMILES | trk 100 nM (inhibition of phosphorylation) | trk 500 nM (inhibition of phosphorylation) | phosphorylation response (FIG. 1, spot)
25 | CCNC(=O)OCc1ccc2c(c1)c1c3c(c4c5ccccc5n5c4c1n2C1CC(O)(C(=O)OC)C5(C)O1)CNC3=O (centres unmarked) [Compound I-35] | + | + | 
26 | CC12OC(CC1(O)CO)n1c3ccc(Br)cc3c3c4c(c5c6ccccc6n2c5c31)CNC4=O (centres unmarked) [Compound I-36] | + |  | 
27 | COC(=O)Nc1ccc2c(c1)c1c3c(c4c5ccccc5n5c4c1n2C1CC(O)(C(=O)OC)C5(C)O1)CNC3=O (centres unmarked) [Compound I-37] | + |  | 
28 | COC(=O)C1(O)CC2OC1(C)n1c3ccccc3c3c4c(c5c6cc(C)ccc6n2c5c31)C(=O)NC4 (centres unmarked) [Compound I-38] | + |  | 
29 | COC(=O)C1(O)CC2OC1(C)n1c3ccc(Br)cc3c3c4c(c5c6cc(Br)ccc6n2c5c31)C(=O)NC4 (centres unmarked) [Compound I-39] | + |  | somewhat diminished (a smaller spot was seen)
30 | CC12OC(CC1(O)C[S+]([O-])c1ccccn1)n1c3ccccc3c3c4c(c5c6ccccc6n2c5c31)CNC4=O (centres unmarked) [Compound I-40] | + |  | 
31 | CCOCc1ccc2c(c1)c1c3c(c4c5ccccc5n5c4c1n2C1CC(O)(C(=O)OC)C5(C)O1)CNC3=O (centres unmarked) [Compound I-41] | + | + | 
32 | CC12OC(CC1(O)C(=O)NCCO)n1c3ccc(Br)cc3c3c4c(c5c6cc(Br)ccc6n2c5c31)CNC4=O (centres unmarked) [Compound I-43] | - | + | 
33 | COC(=O)C1(O)CC2OC1(C)n1c3ccc(Cl)cc3c3c4c(c5c6cc(Cl)ccc6n2c5c31)C(=O)NC4 (centres unmarked) [Compound I-44] | - | + | 
34 | CC12OC(CC1=O)n1c3ccccc3c3c4c(c5c6ccccc6n2c5c31)CNC4=O (centres unmarked) [Compound I-52] | + |  | 
35 | COC(=O)C1(OC)CC2OC1(C)n1c3ccccc3c3c4c(c5c6ccccc6n2c5c31)C(=O)NC4 (centres unmarked) [Compound I-53] | + |  | 
36 | CNC(=O)C1(O)CC2OC1(C)n1c3ccccc3c3c4c(c5c6ccccc6n2c5c31)C(=O)NC4 (centres unmarked) [Compound I-54] | + |  | 
37 | CC(=O)OC1(C(=O)NCC(C)C)CC2OC1(C)n1c3ccccc3c3c4c(c5c6ccccc6n2c5c31)C(=O)NC4 (centres unmarked) [Compound I-55] | + |  | 
38 | CSCC1(O)CC2OC1(C)n1c3ccccc3c3c4c(c5c6ccccc6n2c5c31)C(=O)NC4 (centres unmarked) [Compound I-56] |  | + | 
39 | CC12OC(CC1(O)CNC(=O)[C@@H](N)CCCCN)n1c3ccccc3c3c4c(c5c6ccccc6n2c5c31)CNC4=O (some centres unmarked) [Compound I-57] | + |  | 
40 | COC(=O)C1(O)CC2OC1(C)n1c3ccccc3c3c4c(c5c6cc(C(Sc7ccccc7)Sc7ccccc7)ccc6n2c5c31)C(=O)NC4 (centres unmarked) [Compound I-58] | - | + | 
41 | COC(=O)C1(O)CC2OC1(C)n1c3ccccc3c3c4c(c5c6cc(C7SCCS7)ccc6n2c5c31)C(=O)NC4 (centres unmarked) [Compound I-59] | - | + | 
42 | COC(=O)C1(O)CC2OC1(C)n1c3ccccc3c3c4c(c5c6cc(CSc7ccccn7)ccc6n2c5c31)C(=O)NC4 (centres unmarked) [Compound I-60] | - | + | 
43 | COC(=O)C1(O)CC2OC1(C)n1c3ccccc3c3c4c(c5c6cc(C=NNC7=NCCN7)ccc6n2c5c31)C(=O)NC4 (centres unmarked) [Compound I-61] | - | + | 
44 | COC(=O)C1(O)CC2OC1(C)n1c3ccccc3c3c4c(c5c6cc(CSc7ncccn7)ccc6n2c5c31)C(=O)NC4 (centres unmarked) [Compound I-62] | + | + | 
45 | COC(=O)C1(O)CC2OC1(C)n1c3ccccc3c3c4c(c5c6cc(C[S+]([O-])c7ncccn7)ccc6n2c5c31)C(=O)NC4 (centres unmarked) [Compound I-63] | - | + | 
46 | COC(=O)C1(O)CC2OC1(C)n1c3ccccc3c3c4c(c5c6cc(C[S+]([O-])c7ccccn7)ccc6n2c5c31)C(=O)NC4 (centres unmarked) [Compound I-64] | - | + | 
47 | CCSCc1ccc2c(c1)c1c3c(c4c5cc(CO)ccc5n5c4c1n2C1CC(O)(C(=O)OC)C5(C)O1)CNC3=O (centres unmarked) [Compound I-65] | - | + | 
48 | CC[S+]([O-])Cc1ccc2c(c1)c1c3c(c4c5cc(C[S+]([O-])CC)ccc5n5c4c1n2C1CC(O)(C(=O)OC)C5(C)O1)CNC3=O (centres unmarked) [Compound I-66] | - | + | 
